We go through 16 molecules from US20130324576A1, “THERAPEUTIC COMPOUNDS” (Takeda Pharmaceutical Company Limited, priority 2012, published 2013).

As a reminder, the IC50 is the concentration that inhibits the measured activity by half.

For the test, the target named is T1, human PKR1 receptors (Homo sapiens, UniProt Q8TCW9).
T1 construct: expressed in transfected cells; host or cells: RBL2H3 cells (rat basophilic leukaemia line) expressing human PKR1
T1 sequence (Q8TCW9 whole entry): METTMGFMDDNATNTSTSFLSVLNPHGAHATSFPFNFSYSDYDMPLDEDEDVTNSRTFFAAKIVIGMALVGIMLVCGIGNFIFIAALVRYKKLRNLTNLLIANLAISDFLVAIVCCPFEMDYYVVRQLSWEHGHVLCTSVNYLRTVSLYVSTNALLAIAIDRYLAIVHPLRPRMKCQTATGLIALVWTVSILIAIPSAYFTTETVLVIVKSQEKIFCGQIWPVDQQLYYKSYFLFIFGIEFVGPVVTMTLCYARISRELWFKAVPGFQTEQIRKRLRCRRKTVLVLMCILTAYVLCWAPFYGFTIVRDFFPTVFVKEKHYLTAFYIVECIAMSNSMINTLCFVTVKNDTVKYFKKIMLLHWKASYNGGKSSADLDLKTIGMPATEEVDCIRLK
As to the kind of experiment: PKR1 antagonist assay: block of PK1-mediated intracellular calcium release (FLIPR Tetra, Calcium 5 dye). The format is cell-based. As to conditions: RBL2H3 cells expressing human PKR1; 10 min pre-incubation, stimulation with PK1 at EC80; calcium fluorescence. How it is done: Prokineticin receptor 1 (PKR1) antagonists may be functionally assessed by measurement of change in intracellular calcium levels induced by Gq mediated increase in inositol triphosphate (IP3) levels. The ability of a compound to block the intracellular release of calcium mediated by PK1 in RBL2H3 cells expressing human PKR1 receptors is determined as a measure of the compound's antagonist activity in vitro.
Approximately 10,000 cells per assay well are seeded in normal culture medium in a 384 well plate (Corning). Twenty-four hours after seeding, the cells are loaded with a calcium sensitive fluorescent dye by replacing the culture medium with assay buffer (1× Hanks buffered saline, 25 mM HEPES, 0.1% w/v fatty acid free BSA (bovine serum albumin), pH 7.4) containing 1 mM probenecid and 1× Calcium 5 Reagent (Molecular Devices). Cells are incubated at 37° C. for 1 hour to allow for dye uptake.
To test for antagonist activity, test compounds at a final concentration range between 0.32 nM-10 μM (diluted in assay buffer) are added to the assay wells and allowed to incubate for 10 minutes prior to stimulation with PK1. After incubation with test compounds the assay plate is placed in a FLIPR Tetra (Molecular Devices) and PK1 (diluted in assay buffer) is added at the determined EC80 concentration (final). Ligand-dependent changes in intracellular calcium levels are determined by measuring changes in fluorescence of the dye at […] following excitation at 485 nm.
On the technique in general: Calcium assays in cells follow changes in intracellular calcium, usually with a dye or a luminescent sensor.
On to `Cc1n[nH]c(C)c1S(=O)(=O)N1CCC(Oc2ccc(Cl)cc2C#N)CC1` [Example 34, 5-Chloro-2-{[1-(3,5-dimethyl-1H-pyrazole-4-sulfonyl)piperidin-4-yl]oxy}benzonitrile], for which the IC50 was determined as 240 nM. Under `Cc1n[nH]c(C)c1S(=O)(=O)N1CCC(Oc2ccc(Cl)cc2F)CC1` [Example 35, 4-(4-Chloro-2-fluorophenoxy)-1-(3,5-dimethyl-1H-pyrazole-4-sulfonyl)piperidine] stands 1100 nM; under `Cc1cnn(C)c1S(=O)(=O)N1CCC(Oc2ccc(Cl)cc2Cl)CC1` [Example 36, 4-(2,4-Dichlorophenoxy)-1-(1,4-dimethyl-1H-pyrazole-5-sulfonyl)piperidine], 1100 nM; under `Cc1cnn(C)c1S(=O)(=O)N1CCC(Oc2ccc(Cl)cc2)CC1` [Example 37, 4-(4-Chlorophenoxy)-1-(1,4-dimethyl-1H-pyrazole-5-sulfonyl)piperidine], 7400 nM.

Turning to `Cc1cccc(C)c1OC1CCN(S(=O)(=O)c2c(C)n[nH]c2C)CC1` [Example 38, 1-(3,5-Dimethyl-1H-pyrazole-4-sulfonyl)-4-(2,6-dimethylphenoxy)piperidine], the IC50 came to 3200 nM.

As for `Cc1nn(C)c(C)c1S(=O)(=O)N1CCC(Oc2ccc(Cl)cc2C(F)(F)F)CC1` [Example 39, 4-[4-Chloro-2-(trifluoromethyl)phenoxy]-1-(trimethyl-1H-pyrazole-4-sulfonyl)piperidine], the IC50 is 210 nM. With `Cc1n[nH]c(C)c1S(=O)(=O)N1CCC(Oc2ccc(Cl)cc2C(F)(F)F)CC1` [Example 40, 4-[4-Chloro-2-(trifluoromethyl)phenoxy]-1-(3,5-dimethyl-1H-pyrazole-4-sulfonyl)piperidine] the figure was 210 nM; with `COc1ccc(OC2CCN(S(=O)(=O)c3c(C)n[nH]c3C)CC2)cc1F` [Example 41, 1-(3,5-Dimethyl-1H-pyrazole-4-sulfonyl)-4-(3-fluoro-4-methoxyphenoxy)piperidine], 5900 nM; with `COc1c(F)cc(OC2CCN(S(=O)(=O)c3c(C)n[nH]c3C)CC2)cc1F` [Example 42, 4-(3,5-Difluoro-4-methoxyphenoxy)-1-(3,5-dimethyl-1H-pyrazole-4-sulfonyl)piperidine], 5900 nM. With `COc1ccc(OC2CCN(S(=O)(=O)c3c(C)nn(C)c3C)CC2)cc1F` [Example 43, 4-(3-Fluoro-4-methoxyphenoxy)-1-(trimethyl-1H-pyrazole-4-sulfonyl)piperidine] the figure was 6300 nM; with `COc1c(F)cc(OC2CCN(S(=O)(=O)c3c(C)nn(C)c3C)CC2)cc1F` [Example 44, 4-(3,5-Difluoro-4-methoxyphenoxy)-1-(trimethyl-1H-pyrazole-4-sulfonyl)piperidine], 5100 nM. Under `Cc1nn(C)c(C)c1S(=O)(=O)N1CCC(Oc2ccc(Cl)c(F)c2)CC1` [Example 45, 4-(4-Chloro-3-fluorophenoxy)-1-(trimethyl-1H-pyrazole-4-sulfonyl)piperidine] stands 1400 nM. As to `Cc1nn(C)c(C)c1S(=O)(=O)N1CCC(Oc2c(F)cc(Cl)cc2F)CC1` [Example 46, 4-(4-Chloro-2,6-difluorophenoxy)-1-(trimethyl-1H-pyrazole-4-sulfonyl)piperidine], the IC50 was 1000 nM. Take `Cc1n[nH]c(C)c1S(=O)(=O)N1CCC(Oc2ccc(Cl)c(F)c2)CC1` [Example 47, 4-(4-Chloro-3-fluorophenoxy)-1-(3,5-dimethyl-1H-pyrazole-4-sulfonyl)piperidine]: the IC50 worked out at 1900 nM. Turning to `Cc1nn(C)c(C)c1S(=O)(=O)N1CCC(Oc2ccc(Cl)cn2)CC1` [Example 48, 5-Chloro-2-((1-((1,3,5-trimethyl-1H-pyrazol-4-yl)sulfonyl)piperidin-4-yl)oxy)pyridine], the IC50 was found to be 3800 nM. With `Cc1nn(C)c(C)c1S(=O)(=O)N1CCC(C(=O)c2ccc(Cl)cc2)CC1` [Example 49, (4-Chlorophenyl)(1-((1,3,5-trimethyl-1H-pyrazol-4-yl)sulfonyl)piperidin-4-yl)methanone] the figure was 1000 nM.
